US20130122541A1, “MICROORGANISM PRODUCTION OF HIGH-VALUE CHEMICAL PRODUCTS, AND RELATED COMPOSITIONS, METHODS AND SYSTEMS” (The Regents of the University of Colorado, priority 2010, published 2013)
In brackets after ≈: the same amount, converted by molar mass. Like-named read-outs stand apart in the source and are kept apart here.

Legend:
E. coli = experiment: microbe, parasite or virus in culture; assay type: cell-based; conditions: aerobic
Description: (§1) For MIC evaluations, the final results are expressed in chemical agent concentrations determined by analysis of the stock solution by HPLC (i.e., see Subsection IIIb).
(§2) The minimum inhibitory concentration (MIC) was determined aerobically in a 96 well-plate format. […] Media supplements were added according to levels reported in the Supplements Table, where specified. Overnight cultures of strains were grown in triplicate in 5 mL LB (with antibiotic where appropriate). A 1% (v/v) inoculum was introduced into a 5 ml culture of M9 minimal media.

B. subtilis = experiment: MIC evaluation of 3-HP, B. subtilis aerobic, M9 media + glutamate, 96 well-plate, 24 h (Common Methods); assay type: cell-based
Description: as §1
as §2, with “Table” for “Table,”, “media+glutamate.” for “media.”

[1] = test system: Yeast strains (S288C background); experiment: microbe, parasite or virus in culture; assay type: cell-based, Saccharomyces cerevisiae; conditions: for MIC: Saccharomyces cerevisiae
Description: The minimum inhibitory concentration (MIC) was determined aerobically in a 96 well-plate format. […] Media supplements were added according to levels reported in the Supplements Table, where specified. Overnight cultures of strains were grown in triplicate in 5 mL SD media with vitamins (Methods in Enzymology vol. 350, page 17 (2002)). A 1% (v/v) inoculum was introduced into a 5 ml culture of SD minimal media without vitamins. After the cells reached mid-exponential phase, the culture was diluted to an OD600 of 0.200. The cells were further diluted 1:5 and a 10 μL aliquot was used to inoculate each well of a 96 well plate (˜10^4 cells per well) to total volume of 100 uL. […] Plates were incubated for 72 hours at 30 C.

E. coli K12 = experiment: microbe, parasite or virus in culture; conditions: Escherichia coli, K12, 24 h
[2] = strain BSX_0003.0 (pWH1520), M9 + glu + trp + 1 mM Xylose

O=C(O)CCO [3-HP, 3-hydroxypropionic acid]
% Increase Over Control (E. coli; strain BX_00318.0 (pSmart-LC-Kan-cysM)): 40%
% Increase Over Control (E. coli; strain BX_00319.0 (pK223-aroH)): 50%
% Increase Over Control (E. coli; strain BX_00321.0 (pK223-ct-his-thrA)): 75%
% Increase Over Control (E. coli; strain BX_00322.0 (pJ61-speFED)): 40%
% Increase Over Control (E. coli; strain BX_00323.0 (pJ61-aroG)): 40%
% Increase Over Control (E. coli; strain BX_00324.0 (pJ61-thrA)): 40%
% Increase Over Control (E. coli; strain BX_00325.0 (pJ61-asd)): 40%
% Increase Over Control (E. coli; strain BX_00326.0 (pJ61-ilvA)): 40%
% Increase Over Control (E. coli; strain BX_00327.0 (pJ61-cysM)): 40%
% Increase Over Control (E. coli; strain BX_00334.0 (pSmart-HC-Amp-cadA)): 60%
% Increase Over Control (E. coli; strain BX_00335.0 (pSmart-HC-Amp-prs)): 40%
% Increase Over Control (E. coli; strain BX_00336.0 (pSmart-HC-Amp-nrdAB)): 40%
% Increase Over Control (E. coli; strain BX_00337.0 (pSmart-HC-Amp-nrdEF)): 40%
% Increase Over Control (E. coli; strain BX_00352.0 (pSmart-LC-Kan-metC C1)): 40%
% Increase Over Control (E. coli; strain BX_00353.0 (pSmart-HC-Amp-metC)): 80%
% Increase Over Control (E. coli; strain BX_00354.0 (pSmart-HC-Amp-cynTS)): 80%
% Increase Over Control (E. coli; strain BX_00356.0 (pSmart-HC-Amp-LysA)): 20%
% Increase Over Control (E. coli; strain BX_00357.0 (pKK223-aroH*445)): 50%
% Increase Over Control (E. coli; strain BX_00358.0 (pKK223-aroH*447)): 75%
% Increase Over Control (E. coli; strain BX_00359.0 (pKK223-aroH*457)): 75%
% Increase Over Control (E. coli; strain BX_00361.0 (pACYC177 (Kan only)-cynTS)): 40%
% Increase Over Control (E. coli; strain BX_00362.0 (pACYC177 (Kan only)-aroH)): 20%
% Increase Over Control (E. coli; strain BX_00363.0 (pACYC177 (kan only)-speB)): 40%
% Increase Over Control (E. coli; strain BX_00364.0 (pACYC177 (Kan only)-metE)): 40%
% Increase Over Control (E. coli; strain BX_00365.0 (pACYC177 (Kan only)-metC)): 40%
% Increase Over Control (E. coli; strain BX_00368.0 (pBT-3-cynTS)): 20%
% Increase Over Control (E. coli; strain BX_00370.0 (pBT-3-speB)): 20%
% Increase Over Control (B. subtilis; B. subtilis 168, M9 + glu + trp, supplements none (control)): 0%
% Increase Over Control (B. subtilis; [2]): 0%
Avg 24 hr ΔOD600 (B. subtilis; [2]): 0.00
Avg 24 hr ΔOD600 (B. subtilis; strain BSX_0011.0 (pWH1520-Pxyl:speB region), M9 + glu + trp + 1 mM Xylose): 0.07
Avg 24 hr ΔOD600 (B. subtilis; strain BSX_0015.0 (pWH1520-Pxyl:metE region), M9 + glu + trp + 1 mM Xylose): 0.06
% Increase Over Control ([1]; S288C, SC media vs SD control, aerobic): 33%
MIC ([1]; read-out: Average MIC Assay Result (g/L 3-HP), S288C, SC media, supplements none, aerobic): 60 g/L (≈ 666 mM)
MIC ([1]; read-out: Average MIC Assay Result (g/L 3-HP), S288C, SD media, supplements none (control), aerobic): 45 g/L (≈ 500 mM)
MIC ([1]; read-out: MIC Assay Result (g/L 3-HP), strain YX-022 (BY4722, pyes2.1-Aro3 pRS425-ILV6), SD, aerobic): 60 g/L (≈ 666 mM)
MIC ([1]; read-out: MIC Assay Result (g/L 3-HP), strain YX-CJR-001 (BY4709, pRS426 EV, control), SD, aerobic): 40 g/L (≈ 444 mM)
MIC ([1]; read-out: MIC Assay Result (g/L 3-HP), strain YX-CJR-002 (BY4709, pYes2.1-spe3), SD, aerobic): 50 g/L (≈ 555 mM)
MIC ([1]; read-out: MIC Assay Result (g/L 3-HP), strain YX-CJR-003 (BY4709, pYes2.1-hom2), SD, aerobic): 47 g/L (≈ 522 mM)
MIC ([1]; read-out: MIC Assay Result (g/L 3-HP), strain YX-CJR-005 (BY4709, pYes2.1-Met6), SD, aerobic): 50 g/L (≈ 555 mM)
MIC ([1]; read-out: MIC Assay Result (g/L 3-HP), strain YX-CJR-006 (BY4709, pYes2.1-Ilv2), SD, aerobic): 57 g/L (≈ 633 mM)
MIC ([1]; read-out: MIC Assay Result (g/L 3-HP), strain YX-CJR-010 (BY4709, pyes2.1-Thr1), SD, aerobic): 60 g/L (≈ 666 mM)
MIC ([1]; read-out: MIC Assay Result (g/L 3-HP), strain YX-CJR-014 (BY4709, pyes2.1-arg2), SD, aerobic): 60 g/L (≈ 666 mM)
MIC ([1]; read-out: MIC Assay Result (g/L 3-HP), strain YX-CJR-017 (BY4709, pyes2.1-Aro7), SD, aerobic): 70 g/L (≈ 777 mM)
% Increase Over Control ([1]; strain YX-022 (pyes2.1-Aro3 pRS425-ILV6) vs control, aerobic): 50%
% Increase Over Control ([1]; strain YX-CJR-002 (pYes2.1-spe3) vs YX-CJR-001, aerobic): 25%
% Increase Over Control ([1]; strain YX-CJR-003 (pYes2.1-hom2) vs YX-CJR-001, aerobic): 17%
% Increase Over Control ([1]; strain YX-CJR-005 (pYes2.1-Met6) vs YX-CJR-001, aerobic): 25%
% Increase Over Control ([1]; strain YX-CJR-006 (pYes2.1-Ilv2) vs YX-CJR-001, aerobic): 42%
% Increase Over Control ([1]; strain YX-CJR-010 (pyes2.1-Thr1) vs YX-CJR-001, aerobic): 50%
% Increase Over Control ([1]; strain YX-CJR-014 (pyes2.1-arg2) vs YX-CJR-001, aerobic): 50%
% Increase Over Control ([1]; strain YX-CJR-017 (pyes2.1-Aro7) vs YX-CJR-001, aerobic): 75%
MIC (E. coli K12; read-out: Minimum inhibitory concentration (MIC) for E. coli K12 in 100 g/L stock solution 3-HP (control)): 20 mg/mL (≈ 222 mM)
MIC (E. coli K12; read-out: Minimum inhibitory concentration (MIC) of 3-HP for E. coli K12 in M9 minimal media): 30 mg/mL (≈ 333 mM)
